According to patent publication US7319110B2, “1H-1,2,4-triazole-3-carboxamide derivatives having cannabinoid-CB1 receptor agonistic, partial agonistic, inverse agonistic or antagonistic activity” (Solvay Pharmaceuticals B.V., priority 2002, dated 2008):

## Cl.O=C(NN1CCCC1)c1nc(-c2ccc(Cl)cc2Cl)n(-c2ccc(Cl)cc2)n1
  melting point: 234 to 236 °C (dec.)

## Cl.O=C(NN1CCCC1)c1nc(-c2ccc(Cl)cc2)n(-c2ccc(Cl)cc2Cl)n1 [Example 2, 5-(4-Chlorophenyl)-1-(2,4-dichlorophenyl)-N-(pyrrolidin-1-yl)-1H-1,2,4-triazole-3-carboxamide hydrochloride]
  melting point: 248 to 255 °C (dec.)

## O=C(NN1CCCCC1)c1nc(-c2ccccn2)n(-c2ccc(Cl)cc2Cl)n1
  melting point: 191 to 193 °C

## O=C(NC1CCCCC1)c1nc(-c2ccc(Cl)cc2)n(-c2ccc(Cl)cc2Cl)n1 [Example 3, 5-(4-Chlorophenyl)-N-cyclohexyl-1-(2,4-dichlorophenyl)-1H-1,2,4-triazole-3-carboxamide]
  melting point: 186 to 188 °C

## O=C(NN1CCCCC1)c1nc(-c2ccc(Cl)cc2Cl)n(-c2ccc(C(F)(F)F)cc2)n1
  melting point: 159 to 161 °C

## O=C(NN1CCOCC1)c1nc(-c2ccc(Cl)cc2)n(-c2ccc(Cl)cc2Cl)n1
  melting point: 184 to 186 °C

## CC(C)(C)ONC(=O)c1nc(-c2ccc(Cl)cc2)n(-c2ccc(Cl)cc2Cl)n1
  melting point: 150 to 152 °C

## Cl.O=C(NN1CCOCC1)c1nc(-c2ccc(Cl)cc2Cl)n(-c2ccc(Cl)cc2)n1
  melting point: 224 to 226 °C

## O=C(NN1CCCCC1)c1nc(-c2cccnc2)n(-c2ccc(Cl)cc2Cl)n1
  melting point: 219 °C

## Cl.O=C(NN1CCCCC1)c1nc(-c2ccc(Cl)cc2)n(-c2ccc(Cl)cc2Cl)n1
  melting point: 238 to 240 °C (dec.)
